Experimental data taken from patent US6187585A, “Oligonucleotide inhibition of epidermal growth factor receptor expression” (Isis Pharmaceuticals, Inc., priority 1999, dated 2001).
Strand notation (5' to 3'): a small letter for the sugar, then the base; units joined by * are phosphorothioate-linked, units joined directly phosphodiester-linked; [ ] holds rarer units or linkages, { } end groups; capitals alone tell only the bases. d = 2'-deoxy (DNA)

Experiments:
A431 cells = conditions: cited from earlier work
EGFR tyrosine kinase = conditions: cited from earlier work
EGFR mRNA [1] = test: EGFR mRNA inhibition, Northern blot, A549 human lung carcinoma cells; type: cell-based; conditions: for % Inhibition of EGFR mRNA (10 kb band): 300 nM oligonucleotide, 15 μg/ml LIPOFECTIN, relative to untreated control, normalized to G3PDH
EGFR mRNA [2] = test: EGFR mRNA inhibition, Northern blot, SKOV3 human ovarian carcinoma cells; type: cell-based; conditions: for % Inhibition of EGFR mRNA (10 kb band): 300 nM oligonucleotide, 15 μg/ml LIPOFECTIN, relative to untreated control, normalized to β-actin
EGFR mRNA [3] = test: EGFR mRNA, Northern blot, both cell types together (A549 and SKOV3); type: cell-based, human; conditions: 300 nM
Protocol: SKOV3 and A549 cells were grown in T-75 flasks until 65-75% confluent. The cells were washed once with serum-free OPTI-MEM® medium (Life Technologies, Inc., Grand Island, N.Y.) and 5 ml of the serum-free OPTI-MEM® containing 15 μg/ml of LIPOFECTIN® reagent (a 1:1 liposome formulation of the cationic lipid DOTMA and DOPE, Life Technologies, Inc.) was added. At that time, 300 nM of oligonucleotide was added and swirled vigorously. After a 4-5 hour incubation at 37° C., the solution was removed and fresh maintenance medium containing 10% fetal bovine serum was added. The cells were again incubated overnight at 37° in 5% CO2, after which the cells were assayed for EGFR MRNA expression or cell growth.
Total mRNA was extracted from the cells. For SKOV3 cells, cells were washed twice with PBS and 1-2 ml of RNAZOL B® (Tel-Test, Inc., Friendswood Tex.) was added. An incubation at 4° C. for 5-30 minutes was done and the cells were scraped into an Eppendorf tube. This solution was frozen at -80° C. for 20 minutes, thawed and chloroform (200 μl/ml) was added. The solution was centrifuged at 12,000×g for 15 minutes at 4° C. and the aqueous layer was transferred to a clean Eppendorf tube. An equal volume of isopropanol was added and incubated at room temperature for 15 minutes. Another centrifugation at 12,000×g for 15 minutes at 4° C. was done. The pellet was washed with 500 μl of 75% ethanol and centrifuged at 7500×g for 5 minutes at 4° C. As much of the supernatant as possible was removed and the pellet was resuspended in 30 μl of double distilled water. For A549 cells, total mRNA was extracted using a guanidinium/cesium chloride extraction protocol as described by Dean et al., J. Biol. Chem., 1994, 269, 16416. Ten μg of this mRNA was resolved on a 1.0% agarose gel containing 3.0% formaldehyde and transferred to a nylon membrane. […] The membrane was exposed to autoradiography film at -80° C. and the MRNA bands quantitated using a densitometer (Molecular Dynamics). Blots were stripped of radioactivity by boiling and then reprobed with a ^32 P-labeled control probe which hybridized either to G3PDH (Clontech Laboratories, Inc., Palo Alto Calif.) or β-actin (Ambion, Austin Tex.).
Some of the oligonucleotides in Table 1 were tested for their ability to inhibit EGFR mRNA expression in A549 human lung carcinoma cells and SKOV3 human ovarian carcinoma cells, both of which overexpress the EGFR. […] Total RNA was extracted and quantitated by Northern blot analysis, using PCR-generated EGFR cDNA probes. Bands were quantitated on a densitometer and normalized to control probe bands (G3PDH for the A549 cells and β-actin for the SKOV3 cells). […]

EGFR protein = EGFR protein synthesis, metabolic labeling and immunoprecipitation, SKOV3 cells; type: cell-based, human; conditions: 35S-methionine labeling, compared to untreated cells
Protocol: Human SKOV3 ovarian carcinoma cells were obtained from the American Type Culture Collection. They were grown in McCoy's 5A medium containing NaHCO3, 10% fetal bovine serum and antibiotics and routinely passaged. A549 human lung carcinoma cells were routinely passaged in DMEM medium supplemented with 10% fetal bovine serum.
SKOV3 cells were treated with the indicated oligonucleotides in serum-free, methionine-free OPTI-MEM® medium for 2.5 hours. The medium was then replaced with methionine-free OPTI-MEM® containing ^35 S-methionine (100 μCi/ml) and 2% dialyzed fetal bovine serum for 10 hours. Cell extracts were prepared as described by Kumar et al., Proc. Natl. Acad. Sci. USA, 1992, 89, 6599. Aliquots containing equal amounts of trichloroacetic acid-precipitable counts per minute were subjected to immunoprecipitation with anti-EGFR monoclonal antibody 528/rabbit anti-mouse IgG/protein A-Sepharose conjugate. Kumar et al., Proc. Natl. Acad. Sci. USA, 1992, 89, 6599 and Korutla et al., Carcinogenesis, 1995, 16, 1741. Lysates containing equal amounts of protein were also resolved on a 10% SDS-polyacrylamide gel and stained with Coomassie blue.
ISIS 10563, ISIS 12876 and ISIS 12877 were added to exponentially growing SKOV3 cells. Cells were metabolically labeled with ^35 S-methionine and newly synthesized EGFR protein was immunoprecipitated. […] Coomassie blue staining confirmed that proteins other than EGFR were not affected by treatment of cells with antisense oligonucleotides.

[4] = 300 nM, scrambled control, 10 kb band

| Compound | % Inhibition of EGFR mRNA (10 kb band) (EGFR mRNA [1]) | % Inhibition of EGFR mRNA (10 kb band) (EGFR mRNA [2]) | reduction of EGFR mRNA expression, ranking in words (EGFR mRNA [3]) | reduction of EGFR protein production / EGFR synthesis (EGFR protein) | further results |
| --- | --- | --- | --- | --- | --- |
| COc1cc2ncnc(Nc3cccc(Br)c3)c2cc1OC [PD153035] |  |  |  |  | inhibition of the growth of A431 cells in nude mice (A431 cells): can inhibit the growth of A431 cells in nude mice; inhibition of EGFR tyrosine kinase activity (EGFR tyrosine kinase): inhibits EGFR tyrosine kinase activity |
| ISIS 10561: TGTCGGCCCCACAGGCTCGG; phosphorothioate 2'-deoxy; coding region, Ullrich 1110-1129 (antisense dT*dG*dT*dC*dG*dG*dC*dC*dC*dC*dA*dC*dA*dG*dG*dC*dT*dC*dG*dG) | greater than 50% | 45% |  |  | % Inhibition of EGFR mRNA (10 kb band) (EGFR mRNA [1]; listed as 10561): 75% |
| ISIS 10563: CCCCAGCAGCTCCCATTGGG; phosphorothioate deoxyoligonucleotide; coding region, Ullrich 769-788 (antisense dC*dC*dC*dC*dA*dG*dC*dA*dG*dC*dT*dC*dC*dC*dA*dT*dT*dG*dG*dG) | 95% | 61% | greatest amount of reduction of EGFR mRNA expression in both cell types | 90-98% |  |
| ISIS 10565: CTCGGCTGACATTCCGGCAA; phosphorothioate 2'-deoxy; coding region, Ullrich 1761-1780 (antisense dC*dT*dC*dG*dG*dC*dT*dG*dA*dC*dA*dT*dT*dC*dC*dG*dG*dC*dA*dA) | 43% | 33% |  |  |  |
| ISIS 12139: GAGTTCGCGTCCTTTCTCCA; scrambled control; phosphorothioate (all phosphorothioate, sugars by position and methylation of C not given here) [reference compound] |  |  |  | 10% | increase in EGFR mRNA compared to untreated controls (EGFR mRNA [1]; [4]): 18%; increase in EGFR mRNA compared to untreated controls (EGFR mRNA [2]; [4]): 39% |
| ISIS 12875: CCCCAGCAGCTCCCAUUGGG; 2'-fluoro; phosphorothioate; coding region, Ullrich 769-788 (all phosphorothioate, sugars by position and methylation of C not given here; 2'-fluoro modification, further chemistry not fully specified) | 77% | 57% | slightly less potent |  |  |
| ISIS 12876: CCCCAGCAGCTCCCATTGGG; 5-methyl C; phosphorothioate; coding region, Ullrich 769-788 (all C 5-methyl, all phosphorothioate, sugars by position not given here) | 97% | 66% | greatest amount of reduction of EGFR mRNA expression in both cell types | 90-98% |  |
| ISIS 12877: CUCGGCTGACATTCCGGCAA; 2'-fluoro; phosphorothioate (all phosphorothioate, sugars by position and methylation of C not given here; 2'-fluoro modification, further chemistry not fully specified) | 93% | 61% | greatest amount of reduction of EGFR mRNA expression in both cell types | 90-98% |  |
| ISIS 12878: GAGGCGTTCTCCTUUCUCCA; 2'-O-propyl; phosphorothioate; coding region, Ullrich 2966-2985 (all phosphorothioate, sugars by position and methylation of C not given here; 2'-O-propyl modification, further chemistry not fully specified) | greater than 50% | 22% |  |  | % Inhibition of EGFR mRNA (10 kb band) (EGFR mRNA [1]; listed as 12878): 66% |
